In US10760052B2, “Method of inhibiting tau phosphorylation” (priority 2012, dated 2020):

Biological target: T1, mu opiate receptor (MOR) (Rattus norvegicus, UniProt P33535)
T1 construct: from tissue; host or cells: striatum (membrane preparation)
Type: biochemical
Settings: for Concentration of FLNA-Binding Compound as Agonist 0.1 μM / Concentration of FLNA-Binding Compound as Agonist 1 μM / Concentration of FLNA-Binding Compound as Agonist 1 μM + BFNA: [35S]GTPγS binding to Gαo in striatal membranes; for Concentration of FLNA-Binding Compound as Agonist 0.1 μM: compound 0.1 μM; for Concentration of FLNA-Binding Compound as Agonist 1 μM: compound 1 μM; for Concentration of FLNA-Binding Compound as Agonist 1 μM + BFNA: compound 1 μM plus 1 μM β-funaltrexamine (MOR antagonist)
Description: To assess the mu opiate receptor (MOR) agonist activity of positive compounds from the FLNA screening, compounds were tested in a [^35S]GTPγS binding assay using striatal membranes. […] This assay measures a functional consequence of receptor occupancy at one of the earliest receptor-mediated events. The assay permits for traditional pharmacological parameters of potency, efficacy and antagonist affinity, with the advantage that agonist measures are not subjected to amplification or other modulation that may occur when analyzing parameters further downstream of the receptor.
Thus, striatal tissue was homogenized in 10 volumes of ice cold 25 mM HEPES buffer, pH 7.4, which contained 1 mM EGTA, 100 mM sucrose, 50 μg/ml leupeptin, 0.04 mM PMSF, 2 μg/ml soybean trypsin inhibitor and 0.2% 2-mercaptoethanol. The homogenates were centrifuged at 800×g for 5 minutes and the supernatants were centrifuged at 49,000×g for 20 minutes.
The resultant striatal membrane preparation (200 μg) was admixed and maintained (incubated) at 30° C. for 5 minutes in reaction buffer as above that additionally contained 1 mM MgCl2 and 0.5 nM [^35S]GTPγS (0.1 μCi/assay, PerkinElmer Life and Analytical Sciences) in a total volume of 250 μl and continued for 5 minutes in the absence or presence of 0.1-10 μM of an assayed compound of interest. The reaction was terminated by dilution with 750 μl of ice-cold reaction buffer that contained 20 mM MgCl2 and 1 mM EGTA and immediate centrifugation at 16,000×g for 5 minutes.
Normal rabbit serum (1 μl) was added to 1 ml of lysate and incubated at 25° C. for 30 minutes. Nonspecific immune complexes were removed by incubation with 25 μl of protein A/G-conjugated agarose beads at 25° C. for 30 minutes followed by centrifugation at 5,000×g at 4° C. for 5 minutes. The supernatant was divided and separately incubated at 25° C. for 30 minutes with antibodies raised against Gαo proteins (1:1,000 dilutions).
The immunocomplexes so formed were collected by incubation at 25° C. for 30 minutes with 40 μl of agarose-conjugated protein A/G beads and centrifugation at 5,000×g at 4° C. for 5 minutes. The pellet was washed and suspended in buffer containing 50 mM Tris-HCl, pH 8.0, and 1% NP-40. The radioactivity in the suspension was determined by liquid scintillation spectrometry.

T1 sequence (P33535 whole entry): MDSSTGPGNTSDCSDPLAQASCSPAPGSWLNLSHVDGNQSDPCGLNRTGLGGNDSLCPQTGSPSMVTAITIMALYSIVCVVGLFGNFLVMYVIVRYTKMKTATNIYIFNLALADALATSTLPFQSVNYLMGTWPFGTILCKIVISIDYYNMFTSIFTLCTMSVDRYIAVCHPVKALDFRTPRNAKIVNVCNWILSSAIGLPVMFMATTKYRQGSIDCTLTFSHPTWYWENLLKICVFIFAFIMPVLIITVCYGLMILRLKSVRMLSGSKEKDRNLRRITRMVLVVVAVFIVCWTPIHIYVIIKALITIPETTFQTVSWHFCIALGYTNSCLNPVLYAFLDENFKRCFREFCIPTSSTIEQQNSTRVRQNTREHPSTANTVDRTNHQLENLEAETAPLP

Row | Compound | % DAMGO (0.1 μM) [%] | % DAMGO (1 μM) [%] | % DAMGO + BFNA [%] | Concentration of FLNA-Binding Compound as Agonist 0.1 μM [%] | Concentration of FLNA-Binding Compound as Agonist 1 μM [%] | Concentration of FLNA-Binding Compound as Agonist 1 μM + BFNA [%]
1 | CC1CCC(C(C)C)C(OCC(O)CN2CCCCC2=O)C1 (stereo not drawn) [Compound A0036] | 73.4 | 60.7 | 85.5 | 144.1 | 167.5 | 63.2
2 | CC1CCC(C(C)C)C(OCC(O)CN(C(C)C)C(C)C)C1 (stereo not drawn) [Compound A0037] | 90.7 | 85.6 | 141.5 | 177.9 | 236.2 | 104.6
3 | CC1CCC(C(C)C)C(OCC(O)Cn2cccc2)C1 (stereo not drawn) [Compound A0038] | 90.1 | 85.0 | 144.8 | 176.7 | 234.5 | 107.0
4 | CC1CCC(C(C)C)C(OCC(O)CN2CCc3ccccc3C2)C1 (stereo not drawn) [Compound A0040] | 23.5 | 54.0 | 22.6 | 46.1 | 149.0 | 16.7
5 | CC1CN(CC(O)COc2ccc(Br)c(F)c2)CC(C)O1 (stereo not drawn) [Compound A0041] | 108.4 | 102.8 | 68.5 | 212.7 | 283.6 | 50.6
6 | CC1CN(CC(O)COc2cccc(N(C)C)c2)CC(C)O1 (stereo not drawn) [Compound A0042] | 75.2 | 84.5 | 121.1 | 147.5 | 233.1 | 89.5
7 | CC1CN(CC(O)COc2ccccc2Br)CC(C)O1 (stereo not drawn) [Compound A0043] | 93.4 | 81.1 | 120.6 | 183.3 | 223.8 | 89.1
8 | CC(=O)c1ccc(OCC(O)CN2CC(C)OC(C)C2)cc1 (stereo not drawn) [Compound A0044] | 89.8 | 75.8 | 182.3 | 176.2 | 209.1 | 134.7
9 | CC1CN(CC(O)COc2ccc(Br)c(Cl)c2)CC(C)O1 (stereo not drawn) [Compound A0045] | 73.3 | 99.3 | 134.2 | 143.9 | 274.2 | 99.2
10 | CC1CN(CC(O)COc2cc(F)cc(F)c2)CC(C)O1 (stereo not drawn) [Compound A0046] | 131.2 | 128.3 | 189.4 | 257.5 | 354.1 | 140.0
11 | CC1CN(CC(O)COc2ccc(Cl)cc2)CC(C)O1 (stereo not drawn) [Compound A0047] | 118.8 | 92.4 | 157.6 | 233.0 | 255.0 | 116.5
12 | COc1ccc(OCC(O)CN2CC(C)OC(C)C2)cc1 (stereo not drawn) [Compound A0048] | 119.1 | 109.7 | 226.3 | 233.7 | 302.9 | 167.2
13 | CC1CN(CC(O)COc2cccc(F)c2)CC(C)O1 (stereo not drawn) [Compound A0049] | 118.4 | 134.2 | 144.9 | 232.3 | 370.3 | 107.1
